This is an account of results in publication PMC6747129 (International Journal of Molecular Sciences, 2019).

One may read the Kd as the free concentration of one partner at which half of the binding sites on the other are occupied at equilibrium, for simple one-to-one binding. Lower therefore signals a tighter complex. One may read the IC50 as the concentration needed to halve the response being measured.

For series [1], the target named is T1, CYP3A4 (Homo sapiens, UniProt P08684).
Series [2] addresses T1, CYP3A4. The experiment in a line: biochemical.
Series [3] concerns microsomal and recombinant CYP3A4. To be noted: reversible and mechanism-based inhibition of CYP3A4; cited from earlier work.
Series [4] concerns the target T1, CYP3A4. The experiment in a line: in vitro. The conditions noted are these: pH 7.4.

T1 sequence (P08684 whole entry): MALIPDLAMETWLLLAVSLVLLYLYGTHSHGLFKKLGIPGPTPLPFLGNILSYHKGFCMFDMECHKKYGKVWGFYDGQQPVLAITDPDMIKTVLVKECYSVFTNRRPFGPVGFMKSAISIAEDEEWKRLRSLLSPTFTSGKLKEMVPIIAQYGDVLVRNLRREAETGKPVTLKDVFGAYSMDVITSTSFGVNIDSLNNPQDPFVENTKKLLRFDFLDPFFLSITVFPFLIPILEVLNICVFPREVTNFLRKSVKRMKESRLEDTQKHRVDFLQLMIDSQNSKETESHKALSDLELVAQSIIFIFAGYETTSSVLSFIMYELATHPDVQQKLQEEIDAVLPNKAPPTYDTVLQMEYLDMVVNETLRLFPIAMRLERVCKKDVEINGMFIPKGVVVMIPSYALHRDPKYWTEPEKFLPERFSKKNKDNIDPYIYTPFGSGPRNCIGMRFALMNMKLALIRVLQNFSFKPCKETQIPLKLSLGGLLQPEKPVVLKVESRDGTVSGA

As to `C/C(=C\COc1c2ccoc2cc2oc(=O)ccc12)CCC(O)C(C)(C)O` (stereo not shown) [DHB, 6′,7′-dihydroxybergamottin], the “share of the total absorbance decrease (Soret band) due to occupation of the high affinity site” value on CYP3A4 [1] (DHB titration, two-site fit) was ~ 17%. Also, the figures for the Kd at CYP3A4 [2] and at CYP3A4 [4] were 0.22 ± 0.03 µM and 10.3 ± 1.4 µM, respectively. In series [3], the IC50 was 2 to 23 µM.
In the case of `CC(C)=CCC/C(C)=C/COc1c2ccoc2cc2oc(=O)ccc12` [bergamottin], at CYP3A4 [1] (sigmoidal fit of titration curve, ligand-free CYP3A4), the “n, Hill coefficient” value is 1.8. The same compound displayed a dissociation constant (Kd) on CYP3A4 [2] of 3 ± 0.3 µM. Also, the IC50 in series [3] was 2 to 23 µM.
